Molecular target: T1, 3-keto-steroid reductase/17-beta-hydroxysteroid dehydrogenase 7 (Homo sapiens) (UniProt P56937)
T1 sequence (whole entry): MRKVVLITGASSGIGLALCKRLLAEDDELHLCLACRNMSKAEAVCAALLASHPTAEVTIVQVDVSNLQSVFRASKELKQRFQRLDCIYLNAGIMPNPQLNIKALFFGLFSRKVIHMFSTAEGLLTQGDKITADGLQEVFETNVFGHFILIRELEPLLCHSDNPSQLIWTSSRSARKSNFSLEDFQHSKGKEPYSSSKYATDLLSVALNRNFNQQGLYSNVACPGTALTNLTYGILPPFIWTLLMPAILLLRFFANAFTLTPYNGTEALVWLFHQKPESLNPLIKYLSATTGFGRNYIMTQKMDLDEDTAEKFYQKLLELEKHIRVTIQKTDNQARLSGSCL
Details: HEK293, at 0.3 µM
Description: Inhibition of human 17beta-HSD7 expressed in HEK293 cells assessed as inhibition of reduction of [14C]estrone into [14C]estradiol at 0.3 uM after 7 hrs

| Structure (SMILES) | inhibition [%] |
| --- | --- |
| CCCCCCCCCCCCN(C(=O)c1c(Cl)cccc1Cl)[C@H]1CC[C@H]2[C@@H]3CC[C@H]4N(C)C(=O)CC[C@]4(C)[C@H]3CC[C@]12C | 18 |
| CCCCCCCCCCN(C(=O)c1ccc(I)cc1)[C@H]1CC[C@H]2[C@@H]3CC[C@H]4N(C)C(=O)CC[C@]4(C)[C@H]3CC[C@]12C | 39 |
| CCCCCCCCCCN(C(=O)c1ccc(F)cc1F)[C@H]1CC[C@H]2[C@@H]3CC[C@H]4N(C)C(=O)CC[C@]4(C)[C@H]3CC[C@]12C | 80 |
| CCCCCCCCCCN(C(=O)c1c(F)cccc1F)[C@H]1CC[C@H]2[C@@H]3CC[C@H]4N(C)C(=O)CC[C@]4(C)[C@H]3CC[C@]12C | 77 |
| CCCCCCCCCCCCN(C(=O)c1cccc(CCl)c1)[C@H]1CC[C@H]2[C@@H]3CC[C@H]4N(C)C(=O)CC[C@]4(C)[C@H]3CC[C@]12C | 45 |
| CCCCCCCCCCCCN(C(=O)c1ccc(OC)c(C(F)(F)F)c1)[C@H]1CC[C@H]2[C@@H]3CC[C@H]4N(C)C(=O)CC[C@]4(C)[C@H]3CC[C@]12C | 51 |
| CCCCCCCN(CC1CCCCC1)[C@H]1CC[C@H]2[C@@H]3CC[C@H]4N(C)C(=O)CC[C@]4(C)[C@H]3CC[C@]12C | 45 |
| CCCCCCCCCCN(C(=O)c1c(F)cccc1C(F)(F)F)[C@H]1CC[C@H]2[C@@H]3CC[C@H]4N(C)C(=O)CC[C@]4(C)[C@H]3CC[C@]12C | 19 |
| CCCCCCCCCCN(C(=O)c1ccc(CCCCCCC)cc1)[C@H]1CC[C@H]2[C@@H]3CC[C@H]4N(C)C(=O)CC[C@]4(C)[C@H]3CC[C@]12C | 11 |
| CCCCCCCN(C(=O)c1ccc(F)cc1F)[C@H]1CC[C@H]2[C@@H]3CC[C@H]4N(C)C(=O)CC[C@]4(C)[C@H]3CC[C@]12C | 73 |
| CCCCCCCN(C(=O)c1c(F)cccc1C(F)(F)F)[C@H]1CC[C@H]2[C@@H]3CC[C@H]4N(C)C(=O)CC[C@]4(C)[C@H]3CC[C@]12C | 49 |
| CCCCCCCN(C(=O)c1ccc(C#N)cc1)[C@H]1CC[C@H]2[C@@H]3CC[C@H]4N(C)C(=O)CC[C@]4(C)[C@H]3CC[C@]12C | 56 |
| CCCCCCCCCCCCN(C(=O)c1ccc(C#N)cc1)[C@H]1CC[C@H]2[C@@H]3CC[C@H]4N(C)C(=O)CC[C@]4(C)[C@H]3CC[C@]12C | 51 |
| CCCCCCCCCCN(C(=O)c1c(Cl)cccc1Cl)[C@H]1CC[C@H]2[C@@H]3CC[C@H]4N(C)C(=O)CC[C@]4(C)[C@H]3CC[C@]12C | 36 |
| CCCCCCCN(Cc1ccccc1)[C@H]1CC[C@H]2[C@@H]3CC[C@H]4N(C)C(=O)CC[C@]4(C)[C@H]3CC[C@]12C | 69 |
| CCCCCCCCCCCCN(C(=O)c1ccc(Br)cc1)[C@H]1CC[C@H]2[C@@H]3CC[C@H]4N(C)C(=O)CC[C@]4(C)[C@H]3CC[C@]12C | 52 |
| CCCCCCCN(C(=O)c1cc(F)ccc1F)[C@H]1CC[C@H]2[C@@H]3CC[C@H]4N(C)C(=O)CC[C@]4(C)[C@H]3CC[C@]12C | 59 |
| CCCCCCCCCCN(C(=O)c1ccc(F)cc1)[C@H]1CC[C@H]2[C@@H]3CC[C@H]4N(C)C(=O)CC[C@]4(C)[C@H]3CC[C@]12C | 71 |
| CCCCCCCCCCN(C(=O)c1ccccc1Cl)[C@H]1CC[C@H]2[C@@H]3CC[C@H]4N(C)C(=O)CC[C@]4(C)[C@H]3CC[C@]12C | 37 |
| CCCCCCCN(C(=O)c1cc(F)cc(F)c1)[C@H]1CC[C@H]2[C@@H]3CC[C@H]4N(C)C(=O)CC[C@]4(C)[C@H]3CC[C@]12C | 56 |
| CCCCCCCN(C(=O)c1c(F)c(F)c(F)c(F)c1F)[C@H]1CC[C@H]2[C@@H]3CC[C@H]4N(C)C(=O)CC[C@]4(C)[C@H]3CC[C@]12C | 67 |
| CCCCCCCN(C(=O)c1ccc(Cl)cc1)[C@H]1CC[C@H]2[C@@H]3CC[C@H]4N(C)C(=O)CC[C@]4(C)[C@H]3CC[C@]12C | 65 |
| CCCCCN(C(=O)c1ccc(Br)cc1)[C@H]1CC[C@H]2[C@@H]3CC[C@H]4N(C)C(=O)CC[C@]4(C)[C@H]3CC[C@]12C | 63 |
| CCCCCCCN(C(=O)c1ccc(Br)cc1)[C@H]1CC[C@H]2[C@@H]3CC[C@H]4N(C)C(=O)CC[C@]4(C)[C@H]3CC[C@]12C | 68 |

| Structure (SMILES) | inhibition [%] |
| --- | --- |
| CCCCCCCN(C(=O)c1cccc(CCl)c1)[C@H]1CC[C@H]2[C@@H]3CC[C@H]4N(C)C(=O)CC[C@]4(C)[C@H]3CC[C@]12C | 24 |
| CCCCCCCN(C(=O)c1ccc(OC)c(C(F)(F)F)c1)[C@H]1CC[C@H]2[C@@H]3CC[C@H]4N(C)C(=O)CC[C@]4(C)[C@H]3CC[C@]12C | 59 |
| CCCCCCCN(C(=O)c1ccc(C(C)(C)C)cc1)[C@H]1CC[C@H]2[C@@H]3CC[C@H]4N(C)C(=O)CC[C@]4(C)[C@H]3CC[C@]12C | 29 |
| CCCCCCCN(C(=O)C1CCCCC1)[C@H]1CC[C@H]2[C@@H]3CC[C@H]4N(C)C(=O)CC[C@]4(C)[C@H]3CC[C@]12C | 0 |
| CCCCCCCCCCCCN(C(=O)c1ccc(Cl)cc1)[C@H]1CC[C@H]2[C@@H]3CC[C@H]4N(C)C(=O)CC[C@]4(C)[C@H]3CC[C@]12C | 40 |
| CCCCCCCCCCN(C(=O)c1ccc(C(C)(C)C)cc1)[C@H]1CC[C@H]2[C@@H]3CC[C@H]4N(C)C(=O)CC[C@]4(C)[C@H]3CC[C@]12C | 4 |
| CCCCCCCCCCCCN(C(=O)c1ccccc1Cl)[C@H]1CC[C@H]2[C@@H]3CC[C@H]4N(C)C(=O)CC[C@]4(C)[C@H]3CC[C@]12C | 46 |
| CCCCCCCCCCN(C(=O)c1cc(F)cc(F)c1)[C@H]1CC[C@H]2[C@@H]3CC[C@H]4N(C)C(=O)CC[C@]4(C)[C@H]3CC[C@]12C | 38 |
| CCCCCCCN(C(=O)c1c(Cl)cccc1Cl)[C@H]1CC[C@H]2[C@@H]3CC[C@H]4N(C)C(=O)CC[C@]4(C)[C@H]3CC[C@]12C | 28 |
| CCCCCCCN(C(=O)c1ccc(I)cc1)[C@H]1CC[C@H]2[C@@H]3CC[C@H]4N(C)C(=O)CC[C@]4(C)[C@H]3CC[C@]12C | 60 |
| CCCCCCCCCCN(C(=O)c1ccc(OC)c(C(F)(F)F)c1)[C@H]1CC[C@H]2[C@@H]3CC[C@H]4N(C)C(=O)CC[C@]4(C)[C@H]3CC[C@]12C | 46 |
| CCCCCCCCCCN(C(=O)c1ccc(Cl)cc1)[C@H]1CC[C@H]2[C@@H]3CC[C@H]4N(C)C(=O)CC[C@]4(C)[C@H]3CC[C@]12C | 58 |
| CCCCCCCCCCCCN(C(=O)c1ccc(CCl)cc1)[C@H]1CC[C@H]2[C@@H]3CC[C@H]4N(C)C(=O)CC[C@]4(C)[C@H]3CC[C@]12C | 33 |
| CCCCCCCCCCN(C(=O)c1cc(F)ccc1F)[C@H]1CC[C@H]2[C@@H]3CC[C@H]4N(C)C(=O)CC[C@]4(C)[C@H]3CC[C@]12C | 56 |
| CCCCCCCN(C(=O)c1ccccc1Cl)[C@H]1CC[C@H]2[C@@H]3CC[C@H]4N(C)C(=O)CC[C@]4(C)[C@H]3CC[C@]12C | 37 |
| CCCCCCCCCCN(C(=O)c1ccc(CCl)cc1)[C@H]1CC[C@H]2[C@@H]3CC[C@H]4N(C)C(=O)CC[C@]4(C)[C@H]3CC[C@]12C | 37 |
| CCCCCCCCCCCCN(C(=O)c1ccc(F)cc1)[C@H]1CC[C@H]2[C@@H]3CC[C@H]4N(C)C(=O)CC[C@]4(C)[C@H]3CC[C@]12C | 47 |
| CCCCCCCCCCN(C(=O)c1cccc(CCl)c1)[C@H]1CC[C@H]2[C@@H]3CC[C@H]4N(C)C(=O)CC[C@]4(C)[C@H]3CC[C@]12C | 30 |
| CCCCCCCCCCN(C(=O)c1c(F)c(F)c(F)c(F)c1F)[C@H]1CC[C@H]2[C@@H]3CC[C@H]4N(C)C(=O)CC[C@]4(C)[C@H]3CC[C@]12C | 28 |
| CCCCCCCc1ccc(C(=O)N(CCCCCCC)[C@H]2CC[C@H]3[C@@H]4CC[C@H]5N(C)C(=O)CC[C@]5(C)[C@H]4CC[C@]23C)cc1 | 24 |
| CCCCCCCCCCN(C(=O)c1ccc(C#N)cc1)[C@H]1CC[C@H]2[C@@H]3CC[C@H]4N(C)C(=O)CC[C@]4(C)[C@H]3CC[C@]12C | 49 |
| CCCCCCCCCCN(C(=O)c1ccc(Br)cc1)[C@H]1CC[C@H]2[C@@H]3CC[C@H]4N(C)C(=O)CC[C@]4(C)[C@H]3CC[C@]12C | 52 |
| CCCCCCCN(C(=O)c1ccccc1)[C@H]1CC[C@H]2[C@@H]3CC[C@H]4N(C)C(=O)CC[C@]4(C)[C@H]3CC[C@]12C | 56 |
| CCCCCCCN(C(=O)c1ccc(CCl)cc1)[C@H]1CC[C@H]2[C@@H]3CC[C@H]4N(C)C(=O)CC[C@]4(C)[C@H]3CC[C@]12C | 50 |

Molecular target: T1, 3-keto-steroid reductase/17-beta-hydroxysteroid dehydrogenase 7 (Homo sapiens)
Details: HEK293, at 3 µM
Description: Inhibition of human 17beta-HSD7 expressed in HEK293 cells assessed as inhibition of reduction of [14C]estrone into [14C]estradiol at 3 uM after 7 hrs

| Structure (SMILES) | inhibition [%] |
| --- | --- |
| CC(C)(O)C(=O)Nc1ccc([N+](=O)[O-])c(C(F)(F)F)c1 | 8.2 |
| C[C@]12CC[C@H](O)C=C1CC[C@@H]1[C@@H]2CC[C@]2(C)C(=O)CC[C@@H]12 | 12.2 |
| C[C@]12CC[C@H](O)C[C@@H]1CC[C@@H]1[C@@H]2CC[C@]2(C)[C@@H](O)CC[C@@H]12 | 4.5 |
| C[C@]12CC[C@@H](O)C[C@@H]1CC[C@@H]1[C@@H]2CC[C@]2(C)C(=O)CC[C@@H]12 | 2.2 |
| CC(=O)[C@@]1(O)CC[C@H]2[C@@H]3CC=C4C[C@@H](O)CC[C@]4(C)[C@H]3CC[C@@]21C | 4.1 |
| C[C@]12CCc3c(ccc4cc(O)ccc34)[C@@H]1CCC2=O | 14.2 |
| C[C@]12CC=C3c4ccc(O)cc4CC[C@H]3[C@@H]1CCC2=O | 24 |
| CC(=O)[C@H]1CC[C@H]2[C@@H]3CC=C4C[C@@H](O)CC[C@]4(C)[C@H]3CC[C@]12C | 13.2 |
| CC1(C)CC[C@@]2(CC[C@H]3[C@@H]4CCc5ccccc5[C@H]4CC[C@@]32C)OC1=O | 18.6 |
| C[C@]12CC[C@@H]3c4ccc(O)cc4CC[C@H]3[C@@H]1CC[C@H]2O | 0 |
| C[C@]12CC[C@H]3[C@@H](CCC4=CC(=O)CC[C@@]43C)[C@@H]1CC[C@@H]2O | 7.5 |
| CCC(=C(c1ccc(O)cc1)c1ccc(OCCN(C)C)cc1)c1ccccc1 | 3 |
| C[C@]12CC[C@H]3C(=CCc4cc(O)ccc43)[C@@H]1CCC2=O | 0 |
| C[C@]12CCC(=O)C=C1CC[C@@H]1[C@@H]2[C@@H](O)C[C@@]2(C)[C@H]1CC[C@]2(O)C(=O)CO | 10.3 |

Source: ChEMBL document CHEMBL1154295, “Potent and selective steroidal inhibitors of 17beta-hydroxysteroid dehydrogenase type 7, an enzyme that catalyzes the reduction of the key hormones estrone and dihydrotestosterone” (J Med Chem, 2009)
